# Measured values taken from patent US20260226068A1, “IMIDAZOTRIAZINE IL-17A MODULATORS AND USES THEREOF” (DICE ALPHA, INC., priority 2023, published 2026).
# Key:
# IL-17A/A = target: T1, IL-17A/A (Homo sapiens, UniProt Q16552); assay: IL-17A/A HEK-Blue cell assay (SEAP reporter); format: cell-based; conditions: HEK-Blue IL-17A reporter cells, IL17A/A 5 ng/mL, 20 hours, SEAP read at A630; read-out: HEK-Blue IL17AA (IC50 for IL-17A/A inhibition)
# T1 construct: purchased Genscript Z03228
# T1 sequence (Q16552 24-155): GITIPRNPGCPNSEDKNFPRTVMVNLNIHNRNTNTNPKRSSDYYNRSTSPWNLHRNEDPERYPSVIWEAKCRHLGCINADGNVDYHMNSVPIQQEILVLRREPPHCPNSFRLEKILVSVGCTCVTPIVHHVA
# Procedure: (§1) The HEK-Blue IL-17A reporter cell line (Fisher #NC 1408637) was used for cell-based IL-17A/A inhibition assays. Cells were grown and prepared for assays according to the manufacturer's instructions. This cell line consists of HEK 293 cells that were designed to expressed IL-17RA, IL-17RC, and the Act1 adapter molecule, the combination of which, when stimulated by IL-17A/A or IL17A/F activates a […] promoter and drives expression of the recombinant Secreted Alkaline Phosphatase (SEAP) gene. Media from the cells is then added to a development reagent (Quanti-Blue Substrate, Fisher #NC971 1613), and read at A630.
# (§2) Compounds were dispensed in DMSO to an empty clear 384-well tissue culture plate in a titration ranging from 10 μM to 27 pM, with DMSO added to every well to a final concentration of […]. Cells were then added to the plate (45 μL/well at a concentration of 280,000 cells/mL). IL17A/A (Genscript #Z03228) or IL17A/F (R&D Systems) was added to the plate to a final concentration of 5 ng/mL and a final well volume of 50 μL. The cells, compound, and IL-17A/A or IL17A/F were then incubated for 20 hours before media was removed for SEAP analysis. The resulting inhibition curve was then analyzed using Dotmatics' integrated 4-parameter fit screening protocol to generate IC50 values.
# (§3) Table 2 includes IC50 values for IL-17A/A and IL-17A/F inhibition of selected compounds; with compounds having a IC50 of A<100 nM; B 100-1000 nM; and C>1000 nM.
# IL-17A/F = target: T2, IL-17A/F (Homo sapiens, UniProt Q16552+Q96PD4); assay: IL-17A/F HEK-Blue cell assay (SEAP reporter); format: cell-based; conditions: HEK-Blue IL-17A reporter cells, IL17A/F 5 ng/mL, 20 hours, SEAP read at A630; read-out: HEK-Blue IL17AF (IC50 for IL-17A/F inhibition)
# T2 construct: purchased R&D Systems
# T2 sequence (Q16552 24-155): T1 sequence (Q16552 24-155)
# T2 sequence (Q96PD4 31-163): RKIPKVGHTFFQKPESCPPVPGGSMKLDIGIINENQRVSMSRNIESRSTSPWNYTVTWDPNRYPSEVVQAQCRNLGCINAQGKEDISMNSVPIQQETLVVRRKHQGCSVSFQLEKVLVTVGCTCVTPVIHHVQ
# Procedure: as §1, §2, §3
IC50 (IL-17A/A) [nM],IC50 (IL-17A/F) [nM],SMILES
< 100,> 1000,"CCn1ncnc1C(=O)N[C@H](c1cn2nc(C[C@H]3C[C@@H](C(F)(F)F)CNC3=O)c(C3CCS(=O)(=O)CC3)nc2n1)C1CCC(F)(F)CC1 [Compound 248, N—((S)-(4,4-difluorocyclohexyl)(3-(1,1-dioxidotetrahydro-2H-thiopyran-4-yl)-2-(((3R,5R)-2-oxo-5-(trifluoromethyl)piperidin-3-yl)methyl)imidazo[1,2-b][1,2,4]triazin-6-yl)methyl)-1-ethyl-1H-1,2,4-triazole-5-carboxamide]"
< 100,100 to 1000,"CCc1nonc1C(=O)N[C@H](c1cn2nc(C[C@H]3C[C@@H](C(F)(F)F)CNC3=O)c(C3CCOCC3)nc2n1)C1CCC(F)(F)CC1 [Compound 149, N-((1S)-(4,4-difluorocyclohexyl)(2-(((3R,5R)-2-oxo-5-(trifluoromethyl)piperidin-3-yl)methyl)-3-(tetrahydro-2H-pyran-4-yl)imidazo[1,2-b][1,2,4]triazin-6-yl)methyl)-4-ethyl-1,2,5-oxadiazole-3-carboxamide]"
< 100,> 1000,"CC(C)n1nccc1C(=O)N[C@H](c1cn2nc(CC3C[C@@H](C(F)(F)F)CNC3=O)c(N3CC4CC(C3)O4)nc2n1)[C@H]1CCCC(F)(F)C1 (single isomer, unassigned) [Compound 130]"
< 100,> 1000,"CCn1nccc1C(=O)N[C@H](c1cn2nc(C[C@H]3C[C@@H](C(F)(F)F)CNC3=O)c(CN3CCCC3C)nc2n1)C1CCC(F)(F)CC1 (stereo partly drawn) [Compound 343, N-((1S)-(4,4-difluorocyclohexyl)(3-((2-methylpyrrolidin-1-yl)methyl)-2-(((3R,5R)-2-oxo-5-(trifluoromethyl)piperidin-3-yl)methyl)imidazo[1,2-b][1,2,4]triazin-6-yl)methyl)-1-ethyl-1H-pyrazole-5-carboxamide]"
100 to 1000,> 1000,"CCn1nccc1C(=O)N[C@H](c1cn2nc(CC3C[C@H](C(F)(F)F)CNC3=O)c(N3CCOCC3)nc2n1)C1CCC(F)(F)CC1 (single isomer, unassigned) [Compound 50]"
< 100,100 to 1000,"C=CCCc1nc2nc([C@@H](NC(=O)c3ccnn3CC)C3CCC(F)(F)CC3)cn2nc1C[C@H]1C[C@@H](C(F)(F)F)CNC1=O [Compound 215, N-((1S)-(3-(but-3-en-1-yl)-2-(((3R,5R)-2-oxo-5-(trifluoromethyl)piperidin-3-yl)methyl)imidazo[1,2-b][1,2,4]triazin-6-yl)(4,4-difluorocyclohexyl)methyl)-1-ethyl-1H-pyrazole-5-carboxamide]"
< 100,100 to 1000,"CCn1nccc1C(=O)N[C@H](c1cn2nc(CC3C[C@@H](C(F)(F)F)CNC3=O)c(N3CCO[C@@H](C)C3)nc2n1)[C@@H]1CCCC(F)(F)C1 (single isomer, unassigned) [Compound 208]"
< 100,> 1000,"Cc1nonc1C(=O)N[C@H](c1cn2nc(C[C@H]3C[C@@H](C(F)(F)F)CNC3=O)c(C3CCCOC3)nc2n1)C1CCC(F)(F)CC1 (single isomer, unassigned) [Compound 265]"
< 100,> 1000,CCn1nccc1C(=O)N[C@H](c1cn2nc(C[C@H]3CCCNC3=O)c(C3CCOCC3)nc2n1)C1CCC(F)(F)CC1 [Compound 379]
< 100,> 1000,CCn1nccc1C(=O)N[C@H](c1cn2nc(C[C@@H]3C[C@@H](C)CNC3=O)c(C3CCOCC3)nc2n1)C1CCC(F)(F)CC1 [Compound 304]
< 100,> 1000,"CCn1nccc1C(=O)N[C@H](c1cn2nc(C[C@H]3C[C@@H](C(F)(F)F)CNC3=O)c(CN3C(C)CC3C)nc2n1)C1CCC(F)(F)CC1 (stereo partly drawn) [Compound 338, N-((1S)-(4,4-difluorocyclohexyl)(3-((2,4-dimethylazetidin-1-yl)methyl)-2-(((3R,5R)-2-oxo-5-(trifluoromethyl)piperidin-3-yl)methyl)imidazo[1,2-b][1,2,4]triazin-6-yl)methyl)-1-ethyl-1H-pyrazole-5-carboxamide]"
< 100,> 1000,"CCn1nccc1C(=O)N[C@H](c1cn2nc(C[C@H]3C[C@@H](C(F)(F)F)CNC3=O)c(CN3CCCCC3)nc2n1)C1CCC(F)(F)CC1 [Compound 288, N—((S)-(4,4-difluorocyclohexyl)(2-(((3R,5R)-2-oxo-5-(trifluoromethyl)piperidin-3-yl)methyl)-3-(piperidin-1-ylmethyl)imidazo[1,2-b][1,2,4]triazin-6-yl)methyl)-1-ethyl-1H-pyrazole-5-carboxamide]"
100 to 1000,> 1000,"CCn1nccc1C(=O)N[C@H](c1cn2nc(C[C@@H]3CC(F)(F)CNC3=O)cnc2n1)C1CCC(F)(F)CC1 (single isomer, unassigned) [Compound 63]"
100 to 1000,100 to 1000,"CCn1nccc1C(=O)N[C@H](c1cn2nc(C[C@H]3C[C@@H](C(F)(F)F)CNC3=O)c(C3CCOC4(C3)CN(C(=O)OC(C)(C)C)C4)nc2n1)C1CCC(F)(F)CC1 (stereo partly drawn) [Compound 240, tert-butyl 8-(6-((S)-(4,4-difluorocyclohexyl)(1-ethyl-1H-pyrazole-5-carboxamido)methyl)-2-(((3R,5R)-2-oxo-5-(trifluoromethyl)piperidin-3-yl)methyl)imidazo[1,2-b][1,2,4]triazin-3-yl)-5-oxa-2-azaspiro[3.5]nonane-2-carboxylate]"
< 100,> 1000,"O=C(N[C@H](c1cn2nc(CC3C[C@@H](C(F)(F)F)CNC3=O)cnc2n1)C1CCC(F)(F)CC1)c1conc1C1CC1 (stereo partly drawn) [Compound 9, 3-cyclopropyl-N—((S)-(4,4-difluorocyclohexyl)(2-(((5R)-2-oxo-5-(trifluoromethyl)piperidin-3-yl)methyl)imidazo[1,2-b][1,2,4]triazin-6-yl)methyl)isoxazole-4-carboxamide]"
100 to 1000,> 1000,"CCc1nonc1C(=O)N[C@H](c1cn2nc(C[C@H]3C[C@@H](C(F)(F)F)CNC3=O)c(C3CCOCC3)nc2n1)[C@H]1C[C@H]2C[C@H]2C1 [Compound 317, N—((S)-((1R,3r,5S)-bicyclo[3.1.0]hexan-3-yl)(2-(((3R,5R)-2-oxo-5-(trifluoromethyl)piperidin-3-yl)methyl)-3-(tetrahydro-2H-pyran-4-yl)imidazo[1,2-b][1,2,4]triazin-6-yl)methyl)-4-ethyl-1,2,5-oxadiazole-3-carboxamide]"
100 to 1000,> 1000,Cc1nonc1C(=O)N[C@H](c1cn2nc(C[C@H]3C[C@@H](C(F)(F)F)CNC3=O)c(CN3CCOCC3)nc2n1)C1CCC(F)(F)CC1 [Compound 407]
< 100,> 1000,"CCn1nccc1C(=O)N[C@H](c1cn2nc(CC3C[C@@H](C(F)(F)F)CNC3=O)c(N(C)C)nc2n1)C1CCC(F)(F)CC1 (single isomer, unassigned) [Compound 49]"
< 100,> 1000,CCn1ncnc1C(=O)N[C@H](c1cn2nc(C[C@H]3C[C@@H](C(F)(F)F)CNC3=O)c(C3CCOCC3)nc2n1)C1CCCCC1 [Compound 409]
< 100,100 to 1000,"CCn1nccc1C(=O)N[C@H](c1cn2nc(C[C@H]3C[C@@H](C(F)(F)F)CNC3=O)c(N3CCOC(C)(C)C3)nc2n1)C1CCC(F)(F)CC1 [Compound 365, N—((S)-(4,4-difluorocyclohexyl)(3-(2,2-dimethylmorpholino)-2-(((3R,5R)-2-oxo-5-(trifluoromethyl)piperidin-3-yl)methyl)imidazo[1,2-b][1,2,4]triazin-6-yl)methyl)-1-ethyl-1H-pyrazole-5-carboxamide]"
< 100,> 1000,"Cc1nonc1C(=O)N[C@H](c1cn2nc(C[C@H]3C[C@@H](C(F)(F)F)CNC3=O)c(N3CCN(C)C4(CC4)C3)nc2n1)C1CCC(F)(F)CC1 [Compound 411, N—((S)-(4,4-difluorocyclohexyl)(3-(4-methyl-4,7-diazaspiro[2.5]octan-7-yl)-2-(((3R,5R)-2-oxo-5-(trifluoromethyl)piperidin-3-yl)methyl)imidazo[1,2-b][1,2,4]triazin-6-yl)methyl)-4-methyl-1,2,5-oxadiazole-3-carboxamide]"
100 to 1000,> 1000,"CCn1nccc1C(=O)N[C@H](c1cn2nc(C[C@H]3C[C@@H](C(F)(F)F)CNC3=O)c([C@H](C)N3CCOCC3)nc2n1)C1CCC(F)(F)CC1 (single isomer, unassigned) [Compound 381]"
